Consider one substance from patent US20170356126A1, “LIQUID FILM CLEAVAGE AGENT” (Kao Corporation, priority 2014, published 2017).

How the values of the series were obtained: Further, the water solubility is considered to be applied also to menstrual blood, urine or the like which contains water as a main component.
Specifically, the agent is added for every 0.0001 g, and the measurement is performed.
These numerical values were measured by the above-mentioned measuring method. […] Moreover, the water solubility was measured by adding the agent for every 0.0001 g.

Turning to “dimethyl silicone oil [Comparative Example 2, reference compound]”, the “Water solubility of the above agent” value was determined as 0.0001 g.
